± gives the expanded uncertainty stated by the source.
Assays:
[1] = excess molar enthalpy (molar enthalpy of mixing); xn = mol fraction of the nth substance listed; conditions: 298.15 K, 101 kPa, Liquid, Calvet calorimetry
[2] = xn = mol fraction of the nth substance listed; conditions: 298.15 K, 101 kPa, Liquid

CCCOC=O [propyl methanoate] + ClCCCCCl
Conditions	excess molar enthalpy [kcal/mol]	mass density [kg/m3]
[1], x1 = 0.0711	0.00681 ± 0.000239	–
[1], x1 = 0.1446	0.00982 ± 0.000263	–
[1], x1 = 0.2182	0.0105 ± 0.000263	–
[1], x1 = 0.2908	0.00652 ± 0.000239	–
[1], x1 = 0.3554	0.00213 ± 0.000215	–
[1], x1 = 0.4191	-0.00306 ± 0.000215	–
[1], x1 = 0.4755	-0.007 ± 0.000239	–
[1], x1 = 0.5267	-0.0106 ± 0.000263	–
[1], x1 = 0.5668	-0.0133 ± 0.000287	–
[1], x1 = 0.6196	-0.0168 ± 0.000311	–
[1], x1 = 0.681	-0.0186 ± 0.000335	–
[1], x1 = 0.7427	-0.0172 ± 0.000311	–
[1], x1 = 0.8085	-0.0143 ± 0.000287	–
[1], x1 = 0.875	-0.00939 ± 0.000263	–
[1], x1 = 0.939	-0.00533 ± 0.000239	–
[2], x1 = 0.0695	–	1119.11 ± 0.56
[2], x1 = 0.1347	–	1106.03 ± 0.53
[2], x1 = 0.1987	–	1092.92 ± 0.51
[2], x1 = 0.2624	–	1079.78 ± 0.48
[2], x1 = 0.3279	–	1066.03 ± 0.45
[2], x1 = 0.3884	–	1053.07 ± 0.43
[2], x1 = 0.4509	–	1039.59 ± 0.4
[2], x1 = 0.5061	–	1027.51 ± 0.38
[2], x1 = 0.5671	–	1013.93 ± 0.35
[2], x1 = 0.6204	–	1001.93 ± 0.33
[2], x1 = 0.6808	–	988.13 ± 0.34
[2], x1 = 0.7363	–	975.18 ± 0.35
[2], x1 = 0.7901	–	962.5 ± 0.37
[2], x1 = 0.8426	–	950.01 ± 0.38
[2], x1 = 0.8965	–	936.97 ± 0.4
[2], x1 = 0.9466	–	924.57 ± 0.41

CCCCCOC=O [pentyl methanoate] + ClCCCCCCl
Conditions	excess molar enthalpy [kcal/mol]	mass density [kg/m3]
[1], x1 = 0.0613	-0.00304 ± 0.000215	–
[1], x1 = 0.141	-0.00758 ± 0.000239	–
[1], x1 = 0.2146	-0.0133 ± 0.000287	–
[1], x1 = 0.2884	-0.0206 ± 0.000359	–
[1], x1 = 0.3563	-0.0273 ± 0.000406	–
[1], x1 = 0.4177	-0.0314 ± 0.00043	–
[1], x1 = 0.4725	-0.0349 ± 0.000454	–
[1], x1 = 0.5239	-0.0355 ± 0.000454	–
[1], x1 = 0.5551	-0.0363 ± 0.000478	–
[1], x1 = 0.6165	-0.0347 ± 0.000454	–
[1], x1 = 0.6887	-0.0321 ± 0.00043	–
[1], x1 = 0.7706	-0.0272 ± 0.000406	–
[1], x1 = 0.8586	-0.0187 ± 0.000335	–
[1], x1 = 0.9347	-0.00997 ± 0.000263	–
[2], x1 = 0.0607	–	1082.26 ± 0.49
[2], x1 = 0.1185	–	1069.95 ± 0.46
[2], x1 = 0.1761	–	1057.7 ± 0.44
[2], x1 = 0.2336	–	1045.52 ± 0.41
[2], x1 = 0.2924	–	1033.04 ± 0.39
[2], x1 = 0.3501	–	1020.86 ± 0.36
[2], x1 = 0.4661	–	996.38 ± 0.33
[2], x1 = 0.5254	–	983.92 ± 0.34
[2], x1 = 0.6434	–	959.15 ± 0.37
[2], x1 = 0.7028	–	946.7 ± 0.39
[2], x1 = 0.7612	–	934.48 ± 0.4
[2], x1 = 0.8194	–	922.34 ± 0.41
[2], x1 = 0.8788	–	909.95 ± 0.43
[2], x1 = 0.9368	–	897.88 ± 0.44

ClCCCCl [1,3-dichloropropane] + CCCCOC=O
Conditions	excess molar enthalpy [kcal/mol]	mass density [kg/m3]
[1], x2 = 0.0521	-0.00691 ± 0.000239	–
[1], x2 = 0.1142	-0.0126 ± 0.000287	–
[1], x2 = 0.1765	-0.0207 ± 0.000359	–
[1], x2 = 0.2379	-0.0303 ± 0.00043	–
[1], x2 = 0.2982	-0.0385 ± 0.000478	–
[1], x2 = 0.3557	-0.049 ± 0.000574	–
[1], x2 = 0.4108	-0.0593 ± 0.000645	–
[1], x2 = 0.4602	-0.0664 ± 0.000693	–
[1], x2 = 0.5057	-0.0712 ± 0.000741	–
[1], x2 = 0.5508	-0.0716 ± 0.000741	–
[1], x2 = 0.6114	-0.069 ± 0.000717	–
[1], x2 = 0.6872	-0.0624 ± 0.000669	–
[1], x2 = 0.7608	-0.0527 ± 0.000598	–
[1], x2 = 0.8457	-0.0376 ± 0.000478	–
[1], x2 = 0.9261	-0.0206 ± 0.000359	–
[2], x2 = 0.0505	–	1161.51 ± 0.64
[2], x2 = 0.101	–	1144.56 ± 0.61
[2], x2 = 0.1523	–	1127.68 ± 0.58
[2], x2 = 0.2044	–	1110.9 ± 0.54
[2], x2 = 0.2581	–	1094 ± 0.51
[2], x2 = 0.313	–	1077.09 ± 0.48
[2], x2 = 0.3693	–	1060.1 ± 0.44
[2], x2 = 0.4847	–	1026.45 ± 0.38
[2], x2 = 0.5445	–	1009.59 ± 0.34
[2], x2 = 0.6675	–	976.01 ± 0.35
[2], x2 = 0.7309	–	959.34 ± 0.37
[2], x2 = 0.7964	–	942.5 ± 0.39
[2], x2 = 0.862	–	925.98 ± 0.41
[2], x2 = 0.9296	–	909.27 ± 0.43

ClCCCCl [1,3-dichloropropane] + COC=O
Conditions	excess molar enthalpy [kcal/mol]	mass density [kg/m3]
[1], x2 = 0.0855	0.0211 ± 0.000359	–
[1], x2 = 0.2024	0.0493 ± 0.000574	–
[1], x2 = 0.3078	0.0673 ± 0.000717	–
[1], x2 = 0.4178	0.0803 ± 0.000813	–
[1], x2 = 0.4624	0.08236 ± 0.000813	–
[1], x2 = 0.4877	0.0832 ± 0.000837	–
[1], x2 = 0.5024	0.08372 ± 0.000837	–
[1], x2 = 0.5476	0.0843 ± 0.000837	–
[1], x2 = 0.5583	0.08203 ± 0.000813	–
[1], x2 = 0.5978	0.0807 ± 0.000813	–
[1], x2 = 0.6499	0.078 ± 0.000789	–
[1], x2 = 0.7069	0.0738 ± 0.000765	–
[1], x2 = 0.7674	0.0679 ± 0.000717	–
[1], x2 = 0.8297	0.0585 ± 0.000645	–
[1], x2 = 0.893	0.0448 ± 0.00055	–
[1], x2 = 0.9533	0.0246 ± 0.000406	–
[2], x2 = 0.0849	–	1165.85 ± 0.65
[2], x2 = 0.165	–	1152.81 ± 0.63
[2], x2 = 0.244	–	1139.5 ± 0.6
[2], x2 = 0.3177	–	1126.33 ± 0.57
[2], x2 = 0.386	–	1113.56 ± 0.55
[2], x2 = 0.4563	–	1099.9 ± 0.52
[2], x2 = 0.5138	–	1088.31 ± 0.5
[2], x2 = 0.5789	–	1074.43 ± 0.47
[2], x2 = 0.635	–	1062.04 ± 0.45
[2], x2 = 0.688	–	1049.82 ± 0.42
[2], x2 = 0.7384	–	1037.54 ± 0.4
[2], x2 = 0.7876	–	1025.35 ± 0.37
[2], x2 = 0.8341	–	1013.43 ± 0.35
[2], x2 = 0.878	–	1001.59 ± 0.33
[2], x2 = 0.9206	–	989.81 ± 0.34
[2], x2 = 0.9607	–	978.24 ± 0.35

From the NIST ThermoML archive (doi:10.1016/j.jct.2006.10.008)
